Results as given in patent publication US10011833B2, “Bridged bicyclic nucleosides” (MIRAGEN THERAPEUTICS, INC., priority 2013, dated 2018).
“Also recorded” adds a separate entry of the source.

Assays:
mature human miR-208a = assay: Duplex melting temperature (Tm) of anti-208a oligonucleotides annealed to complementary RNA; type: binding; settings: for Tm / ΔTm, DNA / ΔTm/mod / ΔTm, parent: RNA complement; for Tm: duplex 1 μM in 0.9% NaCl, in °C (unit assumed); for ΔTm, DNA: versus fully DNA oligo 10931; for ΔTm, parent: versus parent 10101
Experimental: The melting temperature (Tm) of modified 16 nucleotide phosphodiester strands were determined and compared to the Tm of identical 16 nucleotide sequences having natural phosphodiester DNA nucleotides. Specifically, the relative aminoCBBN melting temperature (Tm) compared to the 2′-deoxynucleoside or oxoCBBN nucleoside with the same nucleobase was determined on a per incorporation basis by determining the difference between the melting temperature of the amino-modified 16 nucleotide length phosphodiester strand and that of the identical 16 nucleotide sequence utilizing either the 2′-deoxynucleoside or oxoCBBN phosphodiester DNA nucleotide. Tm differences of substitutions were compared only when they were placed in the same position of the sequence.
For example, the modified anti-208a oligonucleotides were annealed to the complementary sequence, twenty-two nucleotides in length, comprised of RNA nucleosides and a phosphate backbone. The complementary sequence was identical to the endogenous mature miRNA. Thermal denaturation temperatures (Tm) were measured as a maximum of the first derivative plot of melting curvex (A260 vs. Temp). The duplexes were constituted at 1 μM in a 0.9% NaCl buffer. Temperature was ramped from 25° C. to 95° C. at 1° C./min and OD's at 260 nm were read once per 30 seconds. Tm values are averages of at least two measurements.
Duplex melting temperatures for various modifications of a 16 nucleotide sequence, complementary to a nucleotide sequence of mature human miR-208a were measured using a Varian Cary 1E UV-Vis Spectrophotometer. Anti-miRNA 208a oligonucleotide sequences tested included a fully DNA phosphodiester (compound M-10931), four DNA phosphodiester oligonucleotides with 1, 2 or 3 aminoCBBN thymidine residues in place of dT residues (compounds M-1915, M-1916, M-1917, and M-11918), mixed 9 LNA/7 DNA phosphorothioate oligonucleotide (compound M-10101), and 2 mixed LNA/DNA/aminoCBBN phosphorothioate oligonucleotides where LNA thymidines of the parent compound, compound M-10101, were replaced with either 1 or 2 aminoCBBN residues (compounds M-11919 and M-11920). Duplexes were constituted at 1 μM in 0.9% NaCl. Temperature was ramped from 25° C. to 95° C. at 1° C./min and OD's at 260 nm were read once per 30 seconds.

RNA Complement = settings: 9mer, phosphate backbone, cited from earlier work; for Tm: RNA complement, literature values
miR-208a = assay: Dual-luciferase reporter assay in HeLa cell line stably expressing miR-208a; type: cell-based; settings: HeLa cells expressing miR-208a, 24 hours at 37° C., FIG. 6
Experimental: A HeLa cell line stably expressing miR-208a was generated. Specifically, a miRNA expression vector (Cell BioLabs, Inc.) expressing miR-208a was transfected into HeLa cells. Cells were then selected using a puromycin selection screen and clones which had detectable miR-208a expression as measured by qPCR were isolated (Ct value=˜30).
The cells were plated in a black-walled 96 well plate with 10,000 cells per well. After twenty-four hours following plating, the cells were transfected with a dual-luciferase plasmid containing the miR-208a binding site in the 3′ UTR of the renilla gene and various miR-208a inhibitors (compounds M-11919, M-11920, and M-10101). Compound M-10591 was a non-targeting control. The cells were incubated for 24 hours at 37° C. and then both firefly (as a transfection normalization) and renilla levels were measured by luminescence using the Dual-Luciferase Reporter Assay System (Promega). Data was normalized to cells treated with only the miR-208a dual luciferase plasmid (psi check 208a).

[1] = PS backbone, per modification versus parent 10101

ICs;dTs;dTs;dTs;ITs;ITs;dGs;ICs;dTs;ICs;IGs;dTs;ICs;dTs;ITs;IA [Oligo 10101, reference compound]
Tm (mature human miR-208a; PS backbone, 10101-like): 86.7

dC;dT;dT;dT;dT;dT;dG;dC;dT;dC;dG;dT;dC;dT;dT;dA (antisense CTTTTTGCTCGTCTTA; DNA, backbone not given here) [Oligo 10931, reference compound]
Tm (mature human miR-208a; phosphate backbone): 53.1
ΔTm, DNA (mature human miR-208a; phosphate backbone): 0 °C

bC.bT.bT.bT.bT.bT.dG.bC.bT.bC.dG.bT.bC.bT.bT. dA [Oligo 10924, reference compound]
Tm (mature human miR-208a; phosphate backbone): 89.8
ΔTm/mod (mature human miR-208a; phosphate backbone, per modification versus DNA): 2.8 ° C./modification
ΔTm, DNA (mature human miR-208a; phosphate backbone): 36.7 °C

dG;aIT;dG;dA;aIT;dA;aIT;dG;dC [DNA_9mer_PO_3aminoLNA-T]
Tm (RNA Complement): 47 °C
ΔTm/mod (RNA Complement; versus 3LNA-T parent, literature): -1 ° C./modification

dG;IT;dG;dA;IT;dA;IT;dG;dC [DNA_9mer_PO_3LNA-T]
Tm (RNA Complement): 50 °C

lCs.dTs.dTs.dTs.lTs.lTs.dGs.lCs.dTs.lCs.lGs.dTs.lCs. dTs.abTs.lA [Oligo 11920]
miR208a inhibition activity (dual-luciferase reporter), in words (miR-208a; listed as M-11920): comparable activity as compound M-10101; also recorded: retains all activity of the optimized M-10101 compound
Tm (mature human miR-208a; PS backbone, 10101-like): 85.125
ΔTm/mod (mature human miR-208a; [1]): -0.7875 ° C./modification
ΔTm, parent (mature human miR-208a; PS backbone): -1.575

lCs.dTs.dTs.dTs.abTs.abTs.dGs.lCs.dTs.lCs.lGs.dTs. lCs.dTs.lTs.lA [Oligo 11919]
miR208a inhibition activity (dual-luciferase reporter), in words (miR-208a): slightly less activity compared to the other two inhibitors
affinity for the miR-208a RNA (Tm data), in words (mature human miR-208a; PS backbone oligonucleotides): less affinity for the miR-208a RNA than the M-11920 compound
Tm (mature human miR-208a; PS backbone, 10101-like): 80.04
ΔTm/mod (mature human miR-208a; [1]): -6.66 ° C./modification
ΔTm, parent (mature human miR-208a; PS backbone): -6.66
